Test results from patent US20230125964A1, “Methods for high throughput cryopreservation of cell clusters” (Regents of the University of Minnesota, priority 2021, published 2023).

Legend:
SC-beta islets = conditions: individual components and mixtures at same total concentration (44%), FIG. 3C
Description: The full-strength CPA used was 22 wt % EG+22 wt % DMSO prepared in RPMI medium. To load the CPA, islets were first incubated in 20% CPA (i.e., 4.4 wt % EG+4.4 wt % DMSO) for 10 min at 21° C., followed by 50% CPA for 10 min at 4° C. and in 100% CPA for 10 min at 4° C. The islets suspension was then transferred to the cryomesh placed on a wicking material (i.e., paper towel). The CPA cocktail was wicked away through the nylon mesh and islets remained on the cryomesh. Clumping of islets was avoided. The cryomesh was quickly plunged into liquid nitrogen and stored in a liquid nitrogen tank. […]
Quantitative viability was measured on dissociated islet cells. […] After 15 seconds of incubation, 10 μL of the suspension was pipetted onto the Countess Cell Counting Chamber Slides (Thermo Fischer Scientific; Cat #C10228), and viability was quantified using a Countess II FL cell counter (Invitrogen by Thermo Fisher Scientific; Cat #AMQAF1000).
To optimize the CPA formulation, three overall CPA concentrations (33%, 44%, and 54%) were tested consisting of PG, EG, DMSO, or mixtures thereof. Qualitative and quantitative live/dead staining was used to measure SC-beta islet viability for each CPA after loading and unloading (FIG. 2F) and after VR. Qualitative measurements were determined by confocal imaging of intact islets after staining with acridine orange (AO) and propidium iodide (PI). […]

[1] = cited from earlier work

SMILES	islet toxicity after CPA loading and unloading (SC-beta islets)	Transport: share achieving normoglycemia ([1]; canine islets to mice)	Transport: time to normoglycemia ([1]; literature studies)
OCCO [EG, ethylene glycol]	least islet toxicity of the three individual components	–	–
C[S+](C)[O-] [DMSO, dimethyl sulfoxide]	–	62%	in 4 days
